US20190030036A1, “PHOSPHODIESTERASE INHIBITOR TREATMENT” (Cyrano Therapeutics, Inc., priority 2013, published 2019)

Tests used:
[1] = system: cAMP; experiment: Parotid saliva cAMP after oral theophylline (Example 2); type: in vivo, human; conditions: for cAMP: parotid saliva
Description: Parotid saliva was collected from each patient by application of a Lashley cup over Stensen's duct with lingual stimulation by placement of concentrated lemon juice. Saliva was collected in plastic tubes and stored at −20° C. until assayed. cAMP and cGMP were measured in saliva by a sensitive 96 plate spectrophotometric assay (R&D Systems, Minneapolis, Minn.).
All patients were placed in a fixed design open label clinical trial with treatment with oral theophylline. Treatment consisted of fixed treatment periods of two-eight months with sequential doses of the drug at 200 mg, 400 mg and 600 mg. At termination of each of these intervals, patients returned to study site for reevaluation. At the end of each interval subjective responses to treatment were measured with a modification of the 0-100 scale previously used. Subjective responses to treatment were graded on a sliding scale from −100−0-+100 with patients recording improvement (+0-+100), no improvement (0) or worsening (0-−100) of their overall smell function. If overall smell function improved ≥5% they were considered to improve clinically (1). If smell function improved <5% they were considered not to improve (1). At the end of each interval subjective measurements of smell function, measurements of DT, RT, ME and H and measurements of parotid saliva for levels of cAMP and cGMP were obtained. In addition, blood plasma was obtained by venipuncture, placed in ice into zinc free tubes which contained 100 mg zinc free heparin, centrifuged at 3000 rpm for 10-20 min, the plasma transferred to plastic PCR tubes and stored at −20° C. until assayed. Theophylline was assayed by a fluorescence polarization assay (Abbott, Chicago, Ill.), as previously described.
Data for the cyclic nucleotides from these 31 patients was not analyzed until the entire study of the 312 patients in Example 1 was assembled and analyzed in its entirety. After completion of these analyses, all data for parotid saliva cAMP and cGMP from all patients in whom salivary cAMP and cGMP were obtained were assembled. Levels of salivary cyclic nucleotides varied widely. Initially, without external criteria, there was no way to understand these disparate data. […] In a similar manner, measurements of each patient's plasma theophylline level at each dosage of theophylline (at 200 mg, 400 mg, 600 mg of theophylline) were categorized. The two patient groups were also analyzed post hoc with respect to type of smell loss and etiology of smell loss.

[2] = system: patients with hyposmia and hypogeusia; experiment: Adverse effects of intranasal theophylline (Example 8); type: in vivo, human; conditions: intranasal theophylline 20 μg/d in each naris, 4 weeks
Description: Under each condition, we performed subjective evaluations of taste and smell functions, quantitative measurements of taste (gustometry) and smell (olfactometry), and measurements of serum theophylline level and body weight.
The intranasal administration device was a calibrated 1 mL syringe fitted with a nozzle that fit comfortably into the anterior naris (Wolfe Tory Medical, Inc) and loaded under sterile conditions with 20 μg of theophylline methylpropyl paraben in a 0.4-mL saline solution (Foundation Care). Patients were instructed to direct the spray superiorly into the nasal cavity but not posteriorly into the nasopharynx. This technique was practiced before study initiation with sterile saline.

Cn1c(=O)c2[nH]cnc2n(C)c1=O [theophylline]
increase of saliva cAMP levels above baseline ([1]; oral theophylline 200 mg, improved patients, not significant): 10% | increase of saliva cAMP levels over baseline ([1]; oral theophylline 400 mg, improved group, not statistically significant): 40% | increase of saliva cAMP levels above initial values ([1]; oral theophylline 600 mg, improved patients, significant): 67% | cAMP ([1]; oral theophylline 200 mg, patients with improved smell function (16)): 0.96 ± 0.13 pmol/mL | cAMP ([1]; oral theophylline 200 mg, patients with unimproved smell function (9)): 0.78 ± 0.26 pmol/mL | cAMP ([1]; oral theophylline 400 mg, patients with improved smell function (12)): 1.22 ± 0.33 pmol/mL | cAMP ([1]; oral theophylline 400 mg, patients with unimproved smell function (5)): 0.95 ± 0.26 pmol/mL | cAMP ([1]; oral theophylline 600 mg, patients with unimproved smell function (9)): 0.56 ± 0.21 pmol/mL | mean serum theophylline level (during intranasal theophylline 20 μg/d in each naris): 0.0 (0.0) | mean (SEM) serum theophylline level (human, in vivo, po): 6.4 (2.0) mg/L | adverse effects [2]: No adverse effects
